Measurements taken from patent publication US11840551B2, “Compositions and methods of modulating the immune response by activating alpha protein kinase 1” (Shanghai Yao Yuan Biotechnology Co., Ltd., priority 2017, dated 2023).
Entries after “also recorded” stand apart in the source; their conditions may differ.

How the values were obtained:
[1] = molecular target: T1, ALPK1 (Homo sapiens, UniProt Q96QP1); experiment: IL8 secretion in HEK293 cells (IL8 ELISA) as indicator of ALPK1 activation; conditions: for IL8 secretion in HEK293 cells: serial dilutions, 4 hours
T1 sequence (Q96QP1 whole entry): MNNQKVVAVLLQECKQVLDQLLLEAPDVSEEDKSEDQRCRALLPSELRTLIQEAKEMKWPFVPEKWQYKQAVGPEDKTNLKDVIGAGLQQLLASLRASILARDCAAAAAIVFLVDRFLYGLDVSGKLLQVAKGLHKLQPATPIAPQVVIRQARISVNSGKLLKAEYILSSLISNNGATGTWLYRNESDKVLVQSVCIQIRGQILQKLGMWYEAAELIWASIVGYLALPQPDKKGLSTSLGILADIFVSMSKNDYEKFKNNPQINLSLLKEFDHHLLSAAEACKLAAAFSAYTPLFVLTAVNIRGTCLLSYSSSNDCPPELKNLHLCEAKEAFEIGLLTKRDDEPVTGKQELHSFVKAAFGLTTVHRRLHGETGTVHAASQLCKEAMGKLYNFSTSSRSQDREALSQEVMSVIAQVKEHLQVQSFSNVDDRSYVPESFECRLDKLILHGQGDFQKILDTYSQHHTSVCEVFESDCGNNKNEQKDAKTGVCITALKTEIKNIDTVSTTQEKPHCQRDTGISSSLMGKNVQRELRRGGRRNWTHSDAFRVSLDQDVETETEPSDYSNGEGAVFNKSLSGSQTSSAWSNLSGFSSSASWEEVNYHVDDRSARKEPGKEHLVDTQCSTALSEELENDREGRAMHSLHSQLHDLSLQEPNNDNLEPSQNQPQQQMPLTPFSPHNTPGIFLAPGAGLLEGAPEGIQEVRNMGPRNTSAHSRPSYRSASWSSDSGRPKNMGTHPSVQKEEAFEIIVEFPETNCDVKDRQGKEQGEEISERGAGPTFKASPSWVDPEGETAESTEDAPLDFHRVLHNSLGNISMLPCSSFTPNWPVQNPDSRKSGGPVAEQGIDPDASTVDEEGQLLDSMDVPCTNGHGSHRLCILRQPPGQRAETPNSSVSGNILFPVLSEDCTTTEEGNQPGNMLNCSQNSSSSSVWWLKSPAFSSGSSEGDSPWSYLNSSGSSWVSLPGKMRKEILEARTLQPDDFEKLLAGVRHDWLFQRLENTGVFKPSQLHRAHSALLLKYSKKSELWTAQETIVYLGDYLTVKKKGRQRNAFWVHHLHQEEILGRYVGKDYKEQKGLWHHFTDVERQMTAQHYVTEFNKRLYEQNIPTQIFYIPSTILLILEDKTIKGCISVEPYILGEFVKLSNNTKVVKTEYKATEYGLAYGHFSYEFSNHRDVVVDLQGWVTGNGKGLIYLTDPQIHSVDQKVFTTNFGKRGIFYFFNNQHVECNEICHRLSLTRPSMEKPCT
Procedure: Phosphatase such as the alkaline phosphatase may be responsible for H1b-ADP hydrolysis. We pre-mixed H1b-ADP with phosphatase inhibitor sodium orthovanadate (Na3VO4) before incubation with FBS. […] We hypothesized that the accumulation of hydrolysis product AMP can inhibit phosphatase activity.
A number of H1b-ADP derivative compounds were made as described herein and tested for biological activity as agonists of ALPK1 in vitro. In these experiments, serial dilutions of the compounds were added to the tissue culture media of HEK293 cells with (FIG. 27B, FIG. 28B, FIG. 29B) or without (FIG. 26, FIG. 27A, FIG. 28A, FIG. 29A) 10% FBS, as indicated in the figures. After 4 hours, the cell supernatant was collected and analyzed for IL8 concentration using IL8 ELISA (BD) as an indicator of ALPK1 activation.

[2] = molecular target: T1, ALPK1; experiment: In vitro kinase assay of ALPK1-dependent TIFA phosphorylation; assay type: biochemical; conditions: ALPK1 2 nM, TIFA 1.6 uM, 50 uM ATP; compound 2 nM, 0.4 nM, 80 pM, 16 pM, 3 pM
Procedure: We performed an in vitro kinase assay with H1b-ADP and H1b-ADP-6L along with ALPK1 protein (2 nM), and TIFA protein (1.6 uM) in kinase buffer containing 50 uM ATP. TIFA phosphorylation was analyzed by denaturing gel electrophoresis followed by western blotting using an anti-phosphothreonine antibody. H1b-ADP or H1b-ADP-6L was added at 2 nM, 0.4 nM, 80 pM, 16 pM, and 3 pM.
To test this, we performed an in vitro kinase reaction for ALPK1-dependent TIFA phosphorylation in the presence of either HBP or HIdA purified from E. coli containing inactivated HIdE, or in the presence of HBP and HIdA purified from the same HIdE wild-type E. coli used in the previous experiments. Phosphorylated TIFA (three concentrations, 1%, 0.2% and […]) was detected as described above by denaturing gel electrophoresis followed by Western analysis.

SMILES	IL8 secretion in HEK293 cells ([1]; with 10% FBS)	IL8 secretion in HEK293 cells ([1]; without FBS)	TIFA phosphorylation [2]	resistance to FBS (serum) degradation ([1]; comparison of IL8 secretion without FBS and with 10% FBS (FIG. 27A, FIG. 27B))
CC(=O)OC[C@H](F)[C@H]1O[C@@H](OP(=O)(O)OP(=O)(O)OC[C@H]2O[C@@H](n3cnc4c(N)ncnc43)[C@H](O)[C@@H]2O)[C@@H](OC(C)=O)[C@@H](OC(C)=O)[C@@H]1OC(C)=O [Compound 3, (2S,3S,4S,5S,6S)-2-((S)-2-acetoxy-1-fluoroethyl)-6-(((((((2R,3S,4R,5R)-5-(6-amino-9H-purin-9-yl)-3,4-dihydroxytetrahydrofuran-2-yl)methoxy)(hydroxy)phosphoryl)oxy)(hydroxy)phosphoryl)oxy)tetrahydro-2H-pyran-3,4,5-triyl triacetate]	activate IL8 secretion	activate IL8 secretion	–	–
Nc1ncnc2c1ncn2[C@@H]1O[C@H](COP(=O)(O)OP(=O)(O)O[C@@H]2O[C@H]([C@@H](O)CO)[C@@H](O)[C@H](O)[C@@H]2O)[C@@H](O)[C@H]1O [Compound H1b-ADP-6L, L-glycero-D-manno-heptose-1β-ADP]	–	–	activated ALPK1-dependent signaling in a manner similar to H1b-ADP	–
CC(=O)OC[C@@H](OC(C)=O)[C@H]1O[C@@H](OP(=O)(O)OP(=O)(O)OC[C@@]2(F)O[C@@H](n3cnc4c(N)ncnc43)[C@H](O)[C@@H]2O)[C@@H](OC(C)=O)[C@@H](OC(C)=O)[C@@H]1OC(C)=O [Compound 20, (2S,3S,4S,5R,6R)-2-(((((((2S,3S,4R,5R)-5-(6-amino-9H-purin-9-yl)-2-fluoro-3,4-dihydroxytetrahydrofuran-2-yl)methoxy)(hydroxy)phosphoryl)oxy)(hydroxy)phosphoryl)oxy)-6-((R)-1,2-diacetoxyethyl)tetrahydro-2H-pyran-3,4,5-triyl triacetate]	activate IL8 secretion	activate IL8 secretion	–	–
Nc1ncnc2c1ncn2[C@@H]1O[C@H](COP(O)(=S)OP(=O)(O)O[C@@H]2OC([C@H](O)CO)[C@@H](O)[C@H](O)C2O)[C@H](O)C1O (stereo partly drawn) [Compound 16]	increased IL8 secretion	increased IL8 secretion	–	–
CO[C@@H]1[C@H](OC)[C@@H](COP(=O)(O)OP(=O)(O)O[C@@H]2O[C@H]([C@@H](COC(C)=O)OC(C)=O)[C@@H](OC(C)=O)[C@H](OC(C)=O)[C@@H]2OC(C)=O)O[C@H]1n1cnc2c(N)ncnc21 [Compound 13, (2S,3S,4S,5R,6R)-2-(((((((2R,3R,4R,5R)-5-(6-amino-9H-purin-9-yl)-3,4-dimethoxytetrahydrofuran-2-yl)methoxy)(hydroxy)phosphoryl)oxy)(hydroxy)phosphoryl)oxy)-6-((R)-1,2-diacetoxyethyl)tetrahydro-2H-pyran-3,4,5-triyl triacetate]	increased IL8 secretion	increased IL8 secretion	–	–
CC(=O)OC[C@H](OC(C)=O)[C@H]1O[C@@H](OP(=O)(O)OP(=O)(O)OC[C@H]2O[C@@H](n3cnc4c(N)ncnc43)[C@H](O)[C@@H]2O)[C@@H](OC(C)=O)[C@@H](OC(C)=O)[C@@H]1OC(C)=O [Compound 21, (2S,3S,4S,5R,6R)-2-(((((((2R,3S,4R,5R)-5-(6-amino-9H-purin-9-yl)-3,4-dihydroxytetrahydrofuran-2-yl)methoxy)(hydroxy)phosphoryl)oxy)(hydroxy)phosphoryl)oxy)-6-((S)-1,2-diacetoxyethyl)tetrahydro-2H-pyran-3,4,5-triyl triacetate]	increased IL8 secretion	increased IL8 secretion	–	–
CC(=O)OC[C@@H](OC(C)=O)C1O[C@@H](OP(=O)(O)OP(=O)(O)OCC2(F)O[C@@H](n3cnc4c(N)ncnc43)C3OC(C)(C)OC32)C(OC(C)=O)C(OC(C)=O)[C@@H]1OC(C)=O (single isomer, unassigned) [Compound 19]	activate IL8 secretion	activate IL8 secretion	–	–
CC(=O)OC[C@H]1O[C@@H](OP(=O)(O)OP(=O)(O)OC[C@H]2O[C@@H](n3cnc4c(N)ncnc43)[C@H](O)[C@@H]2O)[C@@H](OC(C)=O)[C@@H](OC(C)=O)[C@@H]1OC(C)=O [Compound 5, (2R,3R,4S,5S,6S)-2-(acetoxymethyl)-6-(((((((2R,3S,4R,5R)-5-(6-amino-9H-purin-9-yl)-3,4-dihydroxytetrahydrofuran-2-yl)methoxy)(hydroxy)phosphoryl)oxy)(hydroxy)phosphoryl)oxy)tetrahydro-2H-pyran-3,4,5-triyl triacetate]	increased IL8 secretion	increased IL8 secretion	–	–
COC1C(OC)[C@@H](COP(=O)(O)OP(=O)(O)O[C@@H]2OC([C@H](O)CO)[C@@H](O)C(O)C2O)O[C@H]1n1cnc2c(N)ncnc21 (stereo in doubt) [Compound 14, Adenosine-2′3′-dimethoxy-5′-(D-glycero-B-D-mannoheptopyranosyl) diphosphate]	increased IL8 secretion	increased IL8 secretion	–	–
Nc1ncnc2c1ncn2[C@@H]1O[C@H](COP(=O)(O)OP(=O)(O)O[C@@H]2OC([C@@H](O)CO)[C@@H](O)C(O)C2O)C(O)C1O (stereo in doubt) [Compound 22, Adenosine-5′-(L-glycero-β-D-mannoheptopyranosyl) diphosphate]	increased IL8 secretion	increased IL8 secretion	–	–
CC(=O)OC[C@@H](OC(C)=O)[C@H]1O[C@@H](OP(=O)(O)OP(=O)(O)OC[C@H]2O[C@@H](n3cnc4c(N)ncnc43)[C@H](O)[C@H]2F)[C@@H](OC(C)=O)[C@@H](OC(C)=O)[C@@H]1OC(C)=O [Compound 17, (2S,3S,4S,5R,6R)-2-(((((((2R,3R,4S,5R)-5-(6-amino-9H-purin-9-yl)-3-fluoro-4-hydroxytetrahydrofuran-2-yl)methoxy)(hydroxy)phosphoryl)oxy)(hydroxy)phosphoryl)oxy)-6-((R)-1,2-diacetoxyethyl)tetrahydro-2H-pyran-3,4,5-triyl triacetate]	increased IL8 secretion	increased IL8 secretion	–	–
CC(=O)OC[C@@H](OC(C)=O)C1O[C@@H](OP(=O)(O)OP(O)(=S)OC[C@H]2O[C@@H](n3cnc4c(N)ncnc43)C(O)C2O)C(OC(C)=O)C(OC(C)=O)[C@@H]1OC(C)=O (stereo partly drawn) [Compound 15, (2S,3S,4S,5R,6R)-2-(((((((2R,3S,4R,5R)-5-(6-amino-9H-purin-9-yl)-3,4-dihydroxytetrahydrofuran-2-yl)methoxy)(hydroxy)phosphorothioyl)oxy)(hydroxy)phosphoryl)oxy)-6-((R)-1,2-diacetoxyethyl)tetrahydro-2H-pyran-3,4,5-triyl triacetate]	activate IL8 secretion	activate IL8 secretion	–	unexpected resistance to serum degradation; also recorded: resistant to FBS degradation
